IC50 and Activity data for 20 compounds are collected here from ChEMBL document CHEMBL1155282, “Design, synthesis and preliminary biological evaluation of N-hydroxy-4-(3-phenylpropanamido)benzamide (HPPB) derivatives as novel histone deacetylase inhibitors” (Eur J Med Chem, 2009).

As a reminder, the IC50 is the concentration that gives 50% inhibition. Broadly, the pIC50 is the negative decadic logarithm of the IC50, by convention in mol/L. High values mean a small IC50, low ones a large IC50.

pIC50: −log10 of the molar value.

Assay [1] concerns the target Histone deacetylase (HDAC1 and HDAC2) (Homo sapiens, UniProt Q13547+Q92769). The assay is described as follows: Inhibition of HDAC1/HDAC2 from human Hela nuclear extracts using [3H]acetylated histone peptide by colorimetry. Format: protein assay.
The subject of the next assay is A549. As to the kind of experiment: Antiproliferative activity against human A549 cells after 2 days by MTT assay. Format: functional, cell-based. To be noted: A549, 48 h.
Assay [2] relates to HCT-116. The assay is described as follows: Antiproliferative activity against human HCT116 cells after 2 days by MTT assay. Format: functional, cell-based. To be noted: HCT-116, 48 h. A general note: Tetrazolium dyes change colour on reduction, which living cells bring about.
Assay [3] has as its system HCT-116. The assay is described as follows: Cell cycle arrest in human HCT116 cells assessed as accumulation at G1 phase at 1 umol/L by flow cytometry. Format: functional. In general terms: In flow cytometry, cells or beads pass a laser one at a time.
For assay [4], the system named is HCT-116. As to the kind of experiment: Cell cycle arrest in human HCT116 cells assessed as accumulation at S phase at 1 umol/L by flow cytometry. Format: functional.
The subject of assay [5] is HCT-116. As to the kind of experiment: Cell cycle arrest in human HCT116 cells assessed as accumulation at G2 phase at 1 umol/L by flow cytometry. Format: functional.

In assay [1], `COc1cc(CCC(=O)Nc2ccc(C(=O)NO)cc2)ccc1OCCC(C)C` returned a half-inhibitory concentration (IC50) of 2.9 µM. Still for that read-out and setting: the value for `COc1cc(CCC(=O)Nc2ccc(C(=O)NO)cc2)ccc1OCc1cccc(Cl)c1` was 1.6 µM; that for `COc1cc(CCC(=O)Nc2ccc(C(=O)NO)cc2)ccc1OCc1ccccn1` was 3.9 µM.

On to `COc1cc(CCC(=O)Nc2ccc(C(=O)NO)cc2)ccc1OCc1cccs1`, for which the pIC50 is 7.10 in the assay on A549 and 7.52 in the assay with HCT-116 [2]. Also, the figures for the Activity with HCT-116 [3], with HCT-116 [4] and in the assay on HCT-116 [5] were 28.51%, 24.33% and 47.16%, respectively. For the same compound, in assay [1], the IC50 turned out to be 0.3 µM. `COc1cc(CCC(=O)Nc2ccc(C(=O)NO)cc2)ccc1OCc1ccc(Br)cc1` showed an IC50 in assay [1] of 0.8 µM. `COc1cc(CCC(=O)Nc2ccc(C(=O)NO)cc2)ccc1OCc1ccccc1Cl` registered an IC50 in assay [1] of 1.2 µM. In the case of `O=C(CCc1ccc2c(c1)OCO2)Nc1ccc(C(=O)NO)cc1`, the results for the pIC50 in the assay with A549 and in the assay with HCT-116 [2] were 6.30 and 7.22, respectively. Besides, the values for the Activity in the assay with HCT-116 [3], with HCT-116 [4] and in the assay with HCT-116 [5] were 17.09%, 34.11% and 48.8%, respectively. Moreover, the concentration for half-maximal inhibition (IC50) in assay [1] was found to be 0.4 µM.

For the compound `CCOc1ccc(CCC(=O)Nc2ccc(C(=O)NO)cc2)cc1OC`, the concentration for half-maximal inhibition (IC50) in assay [1] came to 2.9 µM. On the same count and under the same terms, the value for `COc1ccc(CCC(=O)Nc2ccc(C(=O)NO)cc2)cc1OC` was 3.3 µM; that for `COc1cc(CCC(=O)Nc2ccc(C(=O)NO)cc2)ccc1OCc1ccc(C)cc1` was 1.5 µM. With `COc1cc(CCC(=O)Nc2ccc(C(=O)NO)cc2)ccc1OCc1ccccc1Br`, the figures for the pIC50 with A549 and in the assay on HCT-116 [2] were 6.22 and 7.00, respectively. Besides, in assay [1], the concentration for half-maximal inhibition (IC50) is 0.6 µM. Consider `COc1cc(CCC(=O)Nc2ccc(C(=O)NO)cc2)ccc1OCc1cccc(C)c1`, for which the IC50 in assay [1] was 2.6 µM. In other words, the single-digit micromolar range.

As for `COc1cc(CCC(=O)Nc2ccc(C(=O)NO)cc2)ccc1OCc1ccccc1`, the figures for the negative-log IC50 (pIC50) in the assay with A549 and with HCT-116 [2] were 6.22 and 6.92, respectively. In addition, the IC50 in assay [1] turned out to be 0.7 µM. As for `COc1cc(CCC(=O)Nc2ccc(C(=O)NO)cc2)ccc1OCc1cccc(Br)c1`, the IC50 in assay [1] is 0.9 µM.

`CCCOc1ccc(CCC(=O)Nc2ccc(C(=O)NO)cc2)cc1OC` came in with an IC50 in assay [1] of 1.7 µM. Same read-out and setting: the value for `CCC(C)Oc1ccc(CCC(=O)Nc2ccc(C(=O)NO)cc2)cc1OC` (centres undefined) was 2.2 µM; that for `CCCCOc1ccc(CCC(=O)Nc2ccc(C(=O)NO)cc2)cc1OC` was 1.6 µM. On the same count and under the same terms, the value for `COc1cc(CCC(=O)Nc2ccc(C(=O)NO)cc2)ccc1OC1CCCC1` was 4 µM; that for `COc1cc(CCC(=O)Nc2ccc(C(=O)NO)cc2)ccc1OCc1ccccc1C` was 1.8 µM; that for `COc1cc(CCC(=O)Nc2ccc(C(=O)NO)cc2)ccc1OCc1ccc(Cl)cc1` was 1.4 µM.
